Where two headings read alike, the source gives them in different places.
Columns and labels:
Malassezia furfur = experiment: Growth inhibition at equal concentrations by weight of P18, zinc pyrithione, climbazole, ketoconazole (CFU); assay type: cell-based
Description: (§1) The studies described hereinafter were conducted on the Malassezia furfur strain DSM 6170.
For this purpose, the procedure was as follows:
(§2) The growth test was effected as follows: a shake culture containing M472 Pityrosporum medium was inoculated with M. furfur and incubated with shaking at 30° C. and 200 rpm overnight.
A 96-well microtiter plate was filled with 100 μl per well of M472 Pityrosporum medium and inoculated with M. furfur suspension from the overnight culture. The M. furfur suspension was adjusted at the start of the experiment to an optical density, measured at 600 nm, of 0.02. The concentrates of the inhibitor solutions were 1 mM in DMSO for P18 peptide and 10 mM in DMSO for zinc pyrithione, ketoconazole and climbazole. The final DMSO concentration was kept the same in all experiments.
The following growth was compared by measuring the optical density: • M. furfur suspension and addition of the P18 solution with a final concentration of 50 μM (corresponds to 0.0115% (w/w)) • M. furfur suspension and addition of the zinc pyrithione (ZPT) solution with a final concentration of 362 μM (comparison to the mixture containing 50 μM P18 peptide) • M. furfur suspension and addition of the ketoconazole solution with a final concentration of 216 μM (comparison to the mixture containing 50 μM P18 peptide) • M. furfur suspension and addition of the climbazole solution with a final concentration of 390 μM (comparison to the mixture containing 50 μM P18 peptide)
(§3) The microtiter plate was incubated with shaking at 30° C.
[…] After incubation over the course of 6 days, the colonies on the plate were counted. The CFU was determined in order to rule out any influence of the biphasic medium, and also the growth form of M. furfur, on the optical density. The experiments were each conducted in double determination, at least in two independent experiments.

[1] = test system: Trichophyton rubrum (DSM21146); experiment: Short-term effect (CFU); assay type: cell-based
Description: For this purpose, the procedure was as follows.
MEP growth medium according to DSMZ:
30 g of malt extract (Becton, Dickinson and Company, Sparks, USA) 3 g of soya peptone (Becton, Dickinson and Company, Sparks, USA) make up to 1 liter, set pH 5.6
The growth test was effected as follows: an agar plate on which the Trichophyton rubrum culture had grown was rinsed with 5 ml of MEP medium.
1.5 ml reaction vessels were each filled with 1 ml of MEP medium and inoculated with 10 μl of the T. rubrum suspension. The concentration of the peptide solution in water or ZPT solution (zinc pyrithione, >96%, Sigma Aldrich) dissolved in DMSO was 2% (w/w).
The following growth was compared: • T. rubrum suspension and addition of P18 peptide with a final concentration in the 1.5 ml reaction vessel of 50 ppm after 5 minutes, 10 minutes, 20 minutes and 60 minutes • T. rubrum suspension and addition of P18 peptide with a final concentration in the 1.5 ml reaction vessel of 100 ppm after 5 minutes, 10 minutes, 20 minutes and 60 minutes • T. rubrum suspension and addition of P18 peptide with a final concentration in the 1.5 ml reaction vessel of 200 ppm after 5 minutes, 10 minutes, 20 minutes and 60 minutes • T. rubrum suspension and addition of P18 peptide with a final concentration in the 1.5 ml reaction vessel of 500 ppm after 5 minutes, 10 minutes, 20 minutes and 60 minutes • T. rubrum suspension and addition of P18 peptide with a final concentration in the 1.5 ml reaction vessel of 1000 ppm after 5 minutes, 10 minutes, 20 minutes and 60 minutes • T. rubrum suspension and addition of ZPT with a final concentration in the 1.5 ml reaction vessel of 50 ppm after 5 minutes, 10 minutes, 20 minutes and 60 minutes • T. rubrum suspension and addition of ZPT with a final concentration in the 1.5 ml reaction vessel of 100 ppm after 5 minutes, 10 minutes, 20 minutes and 60 minutes • T. rubrum suspension and addition of ZPT with a final concentration in the 1.5 ml reaction vessel of 200 ppm after 5 minutes, 10 minutes, 20 minutes and 60 minutes • T. rubrum suspension and addition of ZPT with a final concentration in the 1.5 ml reaction vessel of 500 ppm after 5 minutes, 10 minutes, 20 minutes and 60 minutes • T. rubrum suspension and addition of ZPT with a final concentration in the 1.5 ml reaction vessel of 1000 ppm after 5 minutes, 10 minutes, 20 minutes and 60 minutes
The 1.5 ml reaction vessels were incubated at room temperature.
After the incubation times specified, the colony forming units (CFU) were determined by streaking 1 μl of each of the suspensions diluted with 20 μl of MEP medium and, after incubation for 2 days, counting the colonies.

M. furfur = assay type: cell-based, Malassezia furfur; settings: shampoo base formulation 31-3 present
Description: as §1
The minimum inhibitory concentration (MIC) of peptide P18 (H-KWKLFKKIPKFLHLAKKF-NH2; carboxyl terminus amidated) in the presence of shampoo base formulation 31-3 (Table 10) was tested in the following manner: […]
To prepare the shampoo base formulation, the Texapon NSO and Tego Betain L7 components were mixed and dissolved. NaOH was used to adjust the pH to pH 6-7.
as §2
A 96-well microtiter plate was filled with 170 μl per well of M472 Pityrosporum medium and inoculated with 10 μl of M. furfur suspension from an overnight culture. This corresponded to an optical density of 0.02-0.1, measured at 620 nm. 20 μl of shampoo base formulation 31-3 were added to this mixture. Peptide P18 was dissolved with a concentration of 10 mM in DMSO.
as §3
After incubation for 24 hours, the colony forming units (CFU) were determined by resuspending 1 μl of each of the suspensions in 10 μl of medium, and then streaking them. After incubation over the course of 6 days, the colonies on the plate were counted. The experiment was conducted in double determination.

**Q.** Which results are given for zinc pyrithione [ZPT]?
**A.** Colony forming units (CFU) (Malassezia furfur; final conc. 362 μM, 24 h): 60 ± 40 CFU; Colony forming units (CFU) (Malassezia furfur; final conc. 362 μM, 40 h): 26 ± 7 CFU; Inhibition in words ([1]; 50-1000 ppm, up to 60 minutes): no significant inhibition; Colony forming units after the incubation time specified ([1]; 50 ppm, 5 minutes): 44 CFU; Colony forming units after the incubation time specified ([1]; 50 ppm, 10 minutes): 51 CFU; Colony forming units after the incubation time specified ([1]; 50 ppm, 20 minutes): 51 CFU; Colony forming units after the incubation time specified ([1]; 50 ppm, 60 minutes): 55 CFU; Colony forming units after the incubation time specified ([1]; 100 ppm, 5 minutes): 38 CFU; Colony forming units after the incubation time specified ([1]; 100 ppm, 10 minutes): 54 CFU; Colony forming units after the incubation time specified ([1]; 100 ppm, 20 minutes): 50 CFU; Colony forming units after the incubation time specified ([1]; 100 ppm, 60 minutes): 48 CFU; Colony forming units after the incubation time specified ([1]; 200 ppm, 5 minutes): 44 CFU; Colony forming units after the incubation time specified ([1]; 200 ppm, 10 minutes): 51 CFU; Colony forming units after the incubation time specified ([1]; 200 ppm, 20 minutes): 56 CFU; Colony forming units after the incubation time specified ([1]; 200 ppm, 60 minutes): 49 CFU; Colony forming units after the incubation time specified ([1]; 500 ppm, 5 minutes): 43 CFU; Colony forming units after the incubation time specified ([1]; 500 ppm, 10 minutes): 47 CFU; Colony forming units after the incubation time specified ([1]; 500 ppm, 20 minutes): 51 CFU; Colony forming units after the incubation time specified ([1]; 500 ppm, 60 minutes): 44 CFU; Colony forming units after the incubation time specified ([1]; 1000 ppm, 5 minutes): 52 CFU; Colony forming units after the incubation time specified ([1]; 1000 ppm, 10 minutes): 62 CFU; Colony forming units after the incubation time specified ([1]; 1000 ppm, 20 minutes): 47 CFU; Colony forming units after the incubation time specified ([1]; 1000 ppm, 60 minutes): 48 CFU

**Q.** “H-KWKLFKKIPKFLHLAKKF-NH2 [P18, H-KWKLFKKIPKFLHLAKKF-NH2]” was tested. Which “Colony forming units (CFU)” value (Malassezia furfur; final conc. 50 μM (0.0115% (w/w)), 24 h) did it give?
**A.** Its value is 1 ± 1 CFU.

**Q.** What about the “Colony forming units (CFU)” value (Malassezia furfur; final conc. 50 μM (0.0115% (w/w)), 40 h) of the same substance?
**A.** The value was 0 ± 0 CFU.

**Q.** And the “Colony forming units (CFU) after incubation time of 24 hours” value (shortened to “Colony forming units (CFU) … of 24 hours”) (M. furfur; P18 25 μM)?
**A.** The value was 80 CFU.

**Q.** What about the “Colony forming units (CFU) … of 24 hours” value (M. furfur; P18 50 μM) of the same substance?
**A.** Its value is 32 CFU.

**Q.** And the “Colony forming units (CFU) … of 24 hours” value (M. furfur; P18 100 μM)?
**A.** The value was 0 CFU.

**Q.** What about the “Colony forming units (CFU) … of 24 hours” value (M. furfur; P18 200 μM) of the same substance?
**A.** Its value is 0 CFU.

**Q.** And the “Colony forming units (CFU) … of 24 hours” value (M. furfur; P18 300 μM)?
**A.** The value was 0 CFU.

**Q.** And the “Colony forming units (CFU) … of 24 hours” value (M. furfur; P18 400 μM)?
**A.** Its value is 0 CFU.

**Q.** And the “Colony forming units (CFU) … of 24 hours” value (M. furfur; P18 500 μM)?
**A.** The value was 0 CFU.

**Q.** What about the “Colony forming units after the incubation time specified” value ([1]; 50 ppm, 5 minutes) of the same substance?
**A.** The value was 59 CFU.

**Q.** And the “Colony forming units after the incubation time specified” value ([1]; 50 ppm, 10 minutes)?
**A.** The value was 55 CFU.

**Q.** What about the “Colony forming units after the incubation time specified” value ([1]; 50 ppm, 20 minutes) of the same substance?
**A.** The value was 35 CFU.

**Q.** What about the “Colony forming units after the incubation time specified” value ([1]; 50 ppm, 60 minutes) of the same substance?
**A.** Its value is 23 CFU.

**Q.** And the “Colony forming units after the incubation time specified” value ([1]; 100 ppm, 5 minutes)?
**A.** Its value is 41 CFU.

**Q.** And the “Colony forming units after the incubation time specified” value ([1]; 100 ppm, 10 minutes)?
**A.** The value was 22 CFU.

**Q.** What about the “Colony forming units after the incubation time specified” value ([1]; 100 ppm, 20 minutes) of the same substance?
**A.** Its value is 36 CFU.

**Q.** What about the “Colony forming units after the incubation time specified” value ([1]; 100 ppm, 60 minutes) of the same substance?
**A.** The value was 18 CFU.

**Q.** And the “Colony forming units after the incubation time specified” value ([1]; 200 ppm, 5 minutes)?
**A.** The value was 32 CFU.

**Q.** And the “Colony forming units after the incubation time specified” value ([1]; 200 ppm, 10 minutes)?
**A.** Its value is 39 CFU.

**Q.** What about the “Colony forming units after the incubation time specified” value ([1]; 200 ppm, 20 minutes) of the same substance?
**A.** The value was 24 CFU.

**Q.** What about the “Colony forming units after the incubation time specified” value ([1]; 200 ppm, 60 minutes) of the same substance?
**A.** The value was 5 CFU.

**Q.** And the “Colony forming units after the incubation time specified” value ([1]; 500 ppm, 5 minutes)?
**A.** Its value is 30 CFU.

**Q.** And the “Colony forming units after the incubation time specified” value ([1]; 500 ppm, 10 minutes)?
**A.** Its value is 18 CFU.

**Q.** And the “Colony forming units after the incubation time specified” value ([1]; 500 ppm, 20 minutes)?
**A.** The value was 9 CFU.

**Q.** What about the “Colony forming units after the incubation time specified” value ([1]; 500 ppm, 60 minutes) of the same substance?
**A.** Its value is 1 CFU.

**Q.** And the “Colony forming units after the incubation time specified” value ([1]; 1000 ppm, 5 minutes)?
**A.** Its value is 17 CFU.

**Q.** And the “Colony forming units after the incubation time specified” value ([1]; 1000 ppm, 10 minutes)?
**A.** Its value is 18 CFU.

**Q.** And the “Colony forming units after the incubation time specified” value ([1]; 1000 ppm, 20 minutes)?
**A.** The value was 10 CFU.

**Q.** And the “Colony forming units after the incubation time specified” value ([1]; 1000 ppm, 60 minutes)?
**A.** The value was 2 CFU.

**Q.** What about the “Factor of reduction of the living cell count” value ([1]; cell count 10 times higher (data not shown)) of the same substance?
**A.** Its value is ≤ 2.

**Q.** And the “Factor of reduction of the living cell count” value ([1]; concentration range studied (50-1000 ppm), first 60 minutes)?
**A.** Its value is ≤ 20.

Reference: patent US20120065126A1, “Pharmaceutical Compositions Containing Antifungal Peptides” (BASF SE, priority 2009, published 2012)
